The structures appear in SMILES notation. pKi: −log10 of the molar value. Some results are limits rather than exact numbers.

Holding throughout (format): biochemical
One test concerns the target PKC theta kinase (Homo sapiens, UniProt Q04759). The test is described as follows: PKC theta kinase inhibition, coupled-enzyme (NADH absorbance) assay, Ki. The note with it: 240 μM ATP, 18 nM PKC theta kinase, 30° C. Summed up:
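Enzyme and compound equilibrated 10 min at 30 °C before reaction in HEPES pH 7.5 buffer with MgCl2, NaCl, EDTA and Brij. Activity tracked as NADH loss at 340 nm through a coupled system. Initial-rate data fitted by non-linear regression to give Ki.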

The target in another test is PKC alpha kinase (Homo sapiens, UniProt P17252). Nature of the test: PKC alpha kinase inhibition, coupled-enzyme (NADH absorbance) assay, Ki. The note with it: 130 μM ATP, 4.5 nM PKC alpha kinase, 30° C. Summed up:
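Ki derived by non-linear regression of initial rates from a coupled assay tracking NADH absorbance at 340 nm over 15 min at 30 °C. ATP was 130 μM final after a 10 min compound–enzyme preincubation in HEPES pH 7.5 buffer with MgCl2, CaCl2, NaCl, EDTA and Brij.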

The target of a further test is PKC delta kinase (Homo sapiens, UniProt Q05655). The test is described as follows: PKC delta kinase inhibition, coupled-enzyme (NADH absorbance) assay, Ki. The note with it: 150 μM ATP, 46 nM PKC delta kinase, 30° C.; read-out: Ki PKC delta. In outline: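 Enzyme and compound pre-equilibrated 10 min at 30° C before adding ATP to 150 μM final. Buffer: HEPES pH 7.5 (100 mM), 10 mM MgCl2, 25 mM NaCl, 0.1 mM EDTA, 0.01% Brij.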
PKC delta kinase, sequence (Q05655 whole entry): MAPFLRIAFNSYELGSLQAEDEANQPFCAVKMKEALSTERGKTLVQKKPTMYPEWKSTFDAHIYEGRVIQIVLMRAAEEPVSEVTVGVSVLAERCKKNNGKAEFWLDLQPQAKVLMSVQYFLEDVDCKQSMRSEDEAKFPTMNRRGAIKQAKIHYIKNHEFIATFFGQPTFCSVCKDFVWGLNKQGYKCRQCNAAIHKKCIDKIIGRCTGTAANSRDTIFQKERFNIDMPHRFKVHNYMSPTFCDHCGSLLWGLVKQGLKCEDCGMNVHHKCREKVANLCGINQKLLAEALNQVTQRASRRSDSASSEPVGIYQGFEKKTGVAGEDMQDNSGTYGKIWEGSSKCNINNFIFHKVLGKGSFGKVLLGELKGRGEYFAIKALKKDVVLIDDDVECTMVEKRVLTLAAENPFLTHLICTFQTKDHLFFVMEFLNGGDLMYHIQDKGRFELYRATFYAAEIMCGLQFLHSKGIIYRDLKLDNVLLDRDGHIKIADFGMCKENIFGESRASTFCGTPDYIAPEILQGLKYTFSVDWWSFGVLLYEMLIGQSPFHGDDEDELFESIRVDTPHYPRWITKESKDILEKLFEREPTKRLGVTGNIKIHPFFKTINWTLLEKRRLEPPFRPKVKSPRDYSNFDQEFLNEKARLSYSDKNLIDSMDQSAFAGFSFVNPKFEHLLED

PKC theta kinase, sequence (Q04759 whole entry): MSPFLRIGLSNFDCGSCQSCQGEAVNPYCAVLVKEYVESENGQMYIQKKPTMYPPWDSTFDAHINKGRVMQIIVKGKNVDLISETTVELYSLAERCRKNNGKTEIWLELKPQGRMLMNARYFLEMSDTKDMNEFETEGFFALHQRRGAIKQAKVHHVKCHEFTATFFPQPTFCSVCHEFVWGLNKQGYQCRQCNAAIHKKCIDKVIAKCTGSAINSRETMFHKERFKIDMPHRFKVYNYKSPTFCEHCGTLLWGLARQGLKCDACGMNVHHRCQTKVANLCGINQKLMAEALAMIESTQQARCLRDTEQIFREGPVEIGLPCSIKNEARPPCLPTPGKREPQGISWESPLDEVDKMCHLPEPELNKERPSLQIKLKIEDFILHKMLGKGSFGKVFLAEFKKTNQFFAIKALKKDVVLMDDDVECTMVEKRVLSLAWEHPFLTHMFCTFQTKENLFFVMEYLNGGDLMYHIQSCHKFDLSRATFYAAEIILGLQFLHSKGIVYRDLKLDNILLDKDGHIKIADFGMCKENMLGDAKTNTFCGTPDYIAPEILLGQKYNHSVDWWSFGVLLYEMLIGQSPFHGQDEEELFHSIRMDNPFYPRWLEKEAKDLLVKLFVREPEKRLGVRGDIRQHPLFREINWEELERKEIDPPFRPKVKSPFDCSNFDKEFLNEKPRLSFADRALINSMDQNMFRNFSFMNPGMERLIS

Regarding `CC(C)C(O)[C@@H]1CCCN(c2ccc(F)c(-c3n[nH]c4ncccc34)n2)C1` (stereo partly drawn) [Compound 278], the figures for the pKi on PKC theta kinase, at PKC alpha kinase and on PKC delta kinase were > 6.30, < 5.90 and < 5.90, respectively.
Regarding `CC(C)C(N)C1CCCN(c2ccc(F)c(-c3n[nH]c4ncccc34)n2)C1` (stereo not drawn) [Compound 280], the results for the pKi on PKC theta kinase, at PKC alpha kinase and on PKC delta kinase were > 7.30, > 5.55 and > 6.30, respectively.
The like results for `CC(C)C(N)[C@@H]1CCCN(c2ccc(F)c(-c3n[nH]c4ncccc34)n2)C1` (stereo partly drawn) [Compound 281] were, in that order, > 7.30, < 5.90 and < 5.90.
Take `CC(F)(F)C(C)(O)C1CN(c2ccc(F)c(-c3n[nH]c4ncccc34)n2)CCN1` (stereo not drawn) [Compound 282]: the pKi at PKC theta kinase was > 7.30; on PKC alpha kinase it was < 5.90; at PKC delta kinase it was > 5.55.
On to `CC(F)(F)C(C)(O)C1CN(c2ccc(F)c(-c3n[nH]c4ncccc34)n2)CCN1` (stereo not drawn) [Compound 283], for which the pKi at PKC theta kinase is > 9.00; on PKC alpha kinase, > 5.55; at PKC delta kinase, > 7.30.
For `CC(C)CC1(N)CCCN(c2ccc(F)c(-c3n[nH]c4ncccc34)n2)C1` (stereo not drawn) [Compound 284], in that order: > 6.30, < 5.90 and < 5.90.
The like results for `CC(C)CC1(N)CCCN(c2ccc(C(F)(F)F)c(-c3n[nH]c4ncccc34)n2)C1` (stereo not drawn) [Compound 285] were, in that order, > 6.30, < 5.90 and < 5.90.
The like results for `CC(F)(F)C(C)(O)C1CN(c2ccc(F)c(-c3n[nH]c4ncccc34)n2)CCN1` (stereo not drawn) [Compound 286] were, in that order, > 7.30, < 5.90 and > 6.30.
With `CC(F)(F)C(C)(O)C1CN(c2ccc(F)c(-c3n[nH]c4ncccc34)n2)CCN1` (stereo not drawn) [Compound 287], the pKi on PKC theta kinase is > 9.00; on PKC alpha kinase, > 5.55; on PKC delta kinase, > 8.00.
The like results for `CC1(C)CC1(O)C1CN(c2ccc(F)c(-c3n[nH]c4ncccc34)n2)CCN1` (stereo not drawn) [Compound 288] were, in that order, > 9.00, < 5.90 and > 6.30.
Turning to `NCC1CCN(c2ccc(F)c(-c3n[nH]c4ncccc34)n2)C1` (stereo not drawn) [Compound 289], the pKi at PKC theta kinase is > 6.30; at PKC alpha kinase, < 5.90; on PKC delta kinase, < 5.90.
Consider `Fc1ccc(N2CCN3CCCC3C2)nc1-c1n[nH]c2ncccc12` (stereo not drawn) [Compound 290], for which the pKi on PKC theta kinase was > 6.30; on PKC alpha kinase it was < 5.90; on PKC delta kinase, < 5.90.
In the case of `CCC(N)C1CCCN(c2ccc(F)c(-c3n[nH]c4ncccc34)n2)C1` (stereo not drawn) [Compound 291], the pKi was > 7.30 at PKC theta kinase, > 5.55 at PKC alpha kinase and > 6.30 at PKC delta kinase.
The like results for `CC(C)C(C)(N)C1CCCN(c2ccc(F)c(-c3n[nH]c4ncccc34)n2)C1` (stereo not drawn) [Compound 292] were, in that order, > 6.30, < 5.90 and > 5.55.
In the case of `CC(C)CC1(CO)CN(c2ccc(F)c(-c3n[nH]c4ncccc34)n2)CCC1N` (stereo not drawn) [Compound 293], the pKi on PKC theta kinase was > 7.30; on PKC alpha kinase, > 6.30; on PKC delta kinase, > 7.30.
Regarding `NC1CCCN(c2ccc(F)c(-c3n[nH]c4ncccc34)n2)C1` (stereo not drawn) [Compound 294], the pKi on PKC theta kinase was > 6.30; on PKC alpha kinase it was < 5.90; on PKC delta kinase it was < 5.90.
As for `CC(C)CC1(O)CCCN(c2ccc(F)c(-c3n[nH]c4ncccc34)n2)C1` (stereo not drawn) [Compound 295], the values for the pKi on PKC theta kinase, at PKC alpha kinase and on PKC delta kinase were > 5.55, < 5.90 and < 5.90, respectively.
For `NCC1CN(c2ccc(F)c(-c3n[nH]c4ncccc34)n2)CCC1O` (stereo not drawn) [Compound 296], the pKi on PKC theta kinase is > 6.30; at PKC alpha kinase it was < 5.90; on PKC delta kinase it was > 5.55.
The like results for `Fc1ccc(N2CCc3[nH]ncc3C2)nc1-c1n[nH]c2ncccc12` [Compound 298] were, in that order, < 6.15, < 5.90 and < 5.90.
The like results for `CC(C)CC(N)C1CCCN(c2ccc(F)c(-c3n[nH]c4ncccc34)n2)C1` (stereo not drawn) [Compound 299] were, in that order, > 7.30, < 5.90 and > 5.55.
For the molecule `NC(c1ccccc1)C1CCCN(c2ccc(F)c(-c3n[nH]c4ncccc34)n2)C1` (stereo not drawn) [Compound 301], the pKi was > 6.30 at PKC theta kinase, < 5.90 on PKC alpha kinase and < 5.90 at PKC delta kinase.
Turning to `NC(=O)C1CCCN(c2ccc(F)c(-c3n[nH]c4ncccc34)n2)C1` (stereo not drawn) [Compound 302], the pKi is < 6.15 at PKC theta kinase, < 5.90 at PKC alpha kinase and < 5.90 on PKC delta kinase.
Take `CC(=O)NCC1CCCN(c2ccc(F)c(-c3n[nH]c4ncccc34)n2)C1` (stereo not drawn) [Compound 303]: the results for the pKi on PKC theta kinase, at PKC alpha kinase and on PKC delta kinase were < 6.15, < 5.90 and < 5.90, respectively.
With `NCCC1CCCN(c2ccc(F)c(-c3n[nH]c4ncccc34)n2)C1` (stereo not drawn) [Compound 304], the pKi is < 6.15 on PKC theta kinase, < 5.90 on PKC alpha kinase and < 5.90 on PKC delta kinase.
Take `CN(C)CC1CCCN(c2ccc(F)c(-c3n[nH]c4ncccc34)n2)C1` (stereo not drawn) [Compound 305]: the pKi was < 6.15 at PKC theta kinase, < 5.90 at PKC alpha kinase and < 5.90 on PKC delta kinase.
In the case of `NCc1cccc(-c2ccc(C(F)(F)F)c(-c3n[nH]c4ncccc34)n2)c1` [Compound 306], the pKi at PKC theta kinase is < 6.15; at PKC alpha kinase, < 5.90; at PKC delta kinase, < 5.90.
Regarding `CC(C)(C)C(N)C1CCCN(c2ccc(F)c(-c3n[nH]c4ncccc34)n2)C1` (stereo not drawn) [Compound 307], the pKi is > 9.00 at PKC theta kinase, > 6.30 on PKC alpha kinase and > 7.30 on PKC delta kinase.
The like results for `CC(C)(C)C(N)C1CCCN(c2ccc(F)c(-c3n[nH]c4ncccc34)n2)C1` (stereo not drawn) [Compound 308] were, in that order, > 7.30, < 5.90 and > 5.55.
The like results for `Fc1ccc(N2CC3CCNCC3C2)nc1-c1n[nH]c2ncccc12` (stereo not drawn) [Compound 309] were, in that order, > 5.55, < 5.90 and < 5.90.
For `CC(C)(N)C1CCCN(c2ccc(F)c(-c3n[nH]c4ncccc34)n2)C1` (stereo not drawn) [Compound 310], in that order: > 6.30, > 5.55 and > 6.30.
As to `Fc1ccc(N2CCC3(CCNC3)C2)nc1-c1n[nH]c2ncccc12` (stereo not drawn) [Compound 312], the values for the pKi on PKC theta kinase, on PKC alpha kinase and at PKC delta kinase were < 6.15, < 5.90 and < 5.90, respectively.
For `CC1CN(c2ccc(F)c(-c3n[nH]c4ncccc34)n2)CC1CN` (stereo not drawn) [Compound 313], the pKi was > 6.30 at PKC theta kinase, < 5.90 at PKC alpha kinase and < 5.90 at PKC delta kinase.
For the molecule `Fc1ccc(N2CCCC(C3CCCN3)C2)nc1-c1n[nH]c2ncccc12` (stereo not drawn) [Compound 314], the pKi at PKC theta kinase was > 6.30; on PKC alpha kinase it was < 5.90; at PKC delta kinase it was < 5.90.
For the molecule `CC1(N)CCCN(c2ccc(F)c(-c3n[nH]c4ncccc34)n2)C1` (stereo not drawn) [Compound 316], the pKi at PKC theta kinase was > 6.30; on PKC alpha kinase, < 5.90; at PKC delta kinase, < 5.90.
Take `CC(C)(C)CC(N)C1CCCN(c2ccc(F)c(-c3n[nH]c4ncccc34)n2)C1` (stereo not drawn) [Compound 317]: the values for the pKi on PKC theta kinase, on PKC alpha kinase and on PKC delta kinase were > 7.30, < 5.90 and < 5.90, respectively.
`CC1(N)CCCN(c2ccc(C(F)(F)F)c(-c3n[nH]c4ncccc34)n2)C1` (stereo not drawn) [Compound 319]: the pKi on PKC theta kinase was < 6.15; on PKC alpha kinase it was < 5.90; on PKC delta kinase it was < 5.90.
Turning to `FC(F)(F)c1ccc(N2CCC(N3CCCCC3)CC2)nc1-c1n[nH]c2ncccc12` [Compound 320], the figures for the pKi on PKC theta kinase, at PKC alpha kinase and on PKC delta kinase were < 6.15, < 5.90 and < 5.90, respectively.
Regarding `OCC1CCN(c2ccc(C(F)(F)F)c(-c3n[nH]c4ncccc34)n2)CC1` [Compound 321], the values for the pKi at PKC theta kinase, on PKC alpha kinase and on PKC delta kinase were < 6.15, < 5.90 and < 5.90, respectively.
For `CC(O)(c1ccccc1)C1CN(c2ccc(F)c(-c3n[nH]c4ncccc34)n2)CCN1` (stereo not drawn) [Compound 322], the pKi on PKC theta kinase was > 6.30; at PKC alpha kinase, < 5.90; on PKC delta kinase, < 5.90.
With `NC1(C2CCCN(c3ccc(F)c(-c4n[nH]c5ncccc45)n3)C2)CCC1` (stereo not drawn) [Compound 324], the results for the pKi on PKC theta kinase, on PKC alpha kinase and at PKC delta kinase were > 7.30, > 5.55 and > 7.30, respectively.
Turning to `CC(C)C[C@H]1CN(c2ccc(F)c(-c3n[nH]c4ncccc34)n2)CC[C@@H]1O` [Compound 325], the pKi is > 6.30 on PKC theta kinase, < 5.90 on PKC alpha kinase and < 5.90 at PKC delta kinase.
For the molecule `NCC1CCCN(c2ccc(F)c(-c3n[nH]c4ncccc34)n2)C1` (stereo not drawn) [Compound 327], the results for the pKi at PKC theta kinase, on PKC alpha kinase and at PKC delta kinase were > 6.30, < 5.90 and < 5.90, respectively.
Take `CC(C)C(C)(O)C1CN(c2nc(-c3n[nH]c4ncccc34)ccc2F)CCN1` (stereo not drawn) [Compound 328]: the pKi on PKC theta kinase is > 9.00; at PKC alpha kinase it was > 6.30; on PKC delta kinase, > 8.00.
On to `CC(C)C(C)(O)C1CN(c2nc(-c3n[nH]c4ncccc34)ccc2F)CCN1` (stereo not drawn) [Compound 329], for which the pKi at PKC theta kinase is > 9.00; at PKC alpha kinase, > 5.55; at PKC delta kinase, > 7.30.
